The values that follow come from patent US4341766A, “Deactivation of antibiotic-hydrolyzing enzymes” (priority 1980, dated 1982).

Structures are written as SMILES. Where two headings read alike, the source gives them in different places.

For experiment [1], the target named is T1, E. coli RTEM β-lactamase (Escherichia coli, UniProt P62593).
T1 construct: mature periplasmic enzyme
Kind of experiment: in vitro treatment of E. coli RTEM β-lactamase (deactivation). It counts as biochemical. As to conditions: for turnovers before deactivation: number of molecules of compound needed to inactivate one β-lactamase molecule; for t1/2 for deactivation: in vitro, E. coli RTEM β-lactamase; for comparative efficacy as β-lactamase deactivating agent: in words, comparison of the four compounds of Table I.

The target of experiment [2] is T1, E. coli RTEM β-lactamase. Kind of experiment: rate constant (kcat) of the corresponding N-acyl derivative of 6-aminopenicillanic acid as β-lactamase substrate. It counts as biochemical. The source says: We believe the acyl-enzyme intermediates either deacylate (resulting in the undesirable restoration of the lactamase) or fragment (resulting in the desirable deactivation of the lactamase). […] This can be achieved by employing an N-acyl derivative of 6-aminopenicillanic acid sulfone in which the corresponding N-acyl derivative of 6-aminopenicillanic acid is a very poor substrate for β-lactamase. Since the rate constant (kcat) of an N-acyl derivative of 6-aminopenicillanic acid is a measure of its ability to act as a substrate, this constant provides the basis for defining the class of sulfones used in the invention.
Quinacillin sulfone's effectiveness is shown both by the low inactivation time, and by the low number of turnovers before inactivation (the low number of molecules of quinacillin sulfone needed to inactivate one β-lactamase molecule).

T1 sequence (P62593 24-286 limits assumed): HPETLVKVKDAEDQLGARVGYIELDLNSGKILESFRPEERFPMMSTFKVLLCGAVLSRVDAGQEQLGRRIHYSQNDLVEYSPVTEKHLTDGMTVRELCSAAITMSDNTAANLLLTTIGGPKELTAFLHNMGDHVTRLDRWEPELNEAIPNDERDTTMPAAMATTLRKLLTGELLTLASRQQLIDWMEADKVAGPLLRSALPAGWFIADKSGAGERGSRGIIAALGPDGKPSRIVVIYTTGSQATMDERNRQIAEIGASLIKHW

In the case of `CC1(C)[C@H](C(=O)O)N2C(=O)C[C@H]2S1(=O)=O` [CP-45, 899, 6-des-aminopenicillanic acid sulfone, reference compound], the turnovers before deactivation at E. coli RTEM β-lactamase [1] is 4,500. Also, the “kcat of corresponding N-acyl derivative of 6-aminopenicillanic acid” value on E. coli RTEM β-lactamase [2] was found to be 40 s⁻¹.
Consider `Cc1onc(-c2ccccc2Cl)c1C(=O)N[C@@H]1C(=O)N2[C@@H](C(=O)O)C(C)(C)S(=O)(=O)[C@H]12` [cloxacillin sulfone], for which, on E. coli RTEM β-lactamase [1], the t1/2 for deactivation is given as 1.5 min; the “comparative efficacy as β-lactamase deactivating agent” value (“comparative efficacy” for short) was “effective deactivating agents, though less effective than quinacillin sulfone”; the turnovers before deactivation is listed as 17,000.
Take `COc1cccc(OC)c1C(=O)N[C@@H]1C(=O)N2[C@@H](C(=O)O)C(C)(C)S(=O)(=O)[C@H]12` [methicillin sulfone]: on E. coli RTEM β-lactamase [1], the t1/2 for deactivation is recorded as ~ 1 min; the “comparative efficacy” value is given as “effective deactivating agents, though less effective than quinacillin sulfone”; the turnovers before deactivation is reported as 22,500.
For `CC1(C)[C@H](C(=O)O)N2C(=O)[C@@H](NC(=O)c3nc4ccccc4nc3C(=O)O)[C@H]2S1(=O)=O` [quinacillin sulfone], at E. coli RTEM β-lactamase [1], the t1/2 for deactivation was ~ 1 min, the “comparative efficacy” value is given as “most effective of the four compounds listed” and the turnovers before deactivation stood at 400.
For `CC1(C)S[C@@H]2[C@H](NC(=O)c3nc4ccccc4nc3C(=O)O)C(=O)N2[C@H]1C(=O)O` [quinacillin], the “kcat of corresponding N-acyl derivative of 6-aminopenicillanic acid” value at E. coli RTEM β-lactamase [2] (value belongs to the parent (non-sulfone) penicillin corresponding to the listed sulfone, substrate capability for β-lactamase) is on record as “lowest kcat value”.
